Results from patent publication US11254958B1, “Metabolic engineering of E coli with thio-phosphate” (priority 2018, dated 2022).
“Also recorded” adds a separate entry of the source.

Columns and labels:
[1] = test system: E. coli K12 and JM109 strains; test: Morphological changes by bright field microscopy; type: cell-based
Description: E coli K12 bacteria were grown in high citrate minimal media with 5.4 g/L of thiophosphate or 2.4 g/L of Na2HPO4 for up to 12 hrs. The use of high citrate media was chosen to help lower the total amount of thiophosphate needed for growth when compared to regular M9 media (1). The media is prepared as follows: thiophosphate, 5.4 g/L; KCL 1.5 g/L; (NH4)2SO4, 2 g/L; sodium citrate 2H2O, 10 g/L. Adjust the pH to 7.5 and sterile filter the solution. Then add the following: MgSO4-7H2O, 0.2 g/L (sterilized separately as a conc. solution); glucose, 2 g/L sterilized separately by filtration). Glucose can also be sterilized by autoclaving separately. CaCl2 (11 mg/L) is also be added as needed.
To see if any morphological changes were occurring the bacteria were examined using bright field microscopy. […] To test whether this morphology was due to a nutritional deficiency K12 cells were grown in LB broth with 2.7 g of thiophosphate per liter.
In this media, filaments were detected by 8 hrs and by 2 hrs paired bacteria could be seen, as before with minimal media. In the 8 hr sample, however, the view was more mixed compared to that seen with minimal media, as both filamentous bacteria and some shorter and more normal appearing bacteria were observed.

E coli = conditions: cited from earlier work
[2] = semi-synthetic media containing thiophosphate with amino acids added

OP(O)(O)=S [thio-phosphate]
morphology ([1]; K12, LB broth with 2.7 g of thiophosphate per liter, 12 hrs): Filamentous growth was not observed; also recorded: paired phenotype
morphology ([1]; K12, LB broth with 2.7 g of thiophosphate per liter, 12 hrs, listed as TP): paired phenotype
morphology ([1]; K12 and JM109, minimal thiophosphate media, 12 hrs): distinct filamentous morphology
morphology ([1]; K12 and JM109, minimal thiophosphate media, 12 hrs, listed as TP): filamentous phenotype
morphology ([1]; K12 and JM109, thiophosphate media, 2 hrs): appeared as pairs
growth [1, 2]: good growth
morphology [1, 2]: mixed with both long filamentous and shorter bacterial cells
protein spots significantly changed (E coli; previous studies): 28%
average fold change of proteins (E coli; prior protein results): ~5 × fold
proteins decreased (E coli; prior protein results): 13%
proteins increased (E coli; prior protein results): 15%
